# In patent US12233060B2, “Inhibitors of Ataxia-Telangiectasia Mutated and Rad3-related protein kinase (ATR) for use in methods of treating cancer” (THE INSTITUTE OF CANCER RESEARCH: ROYAL CANCER HOSPITAL, priority 2016, dated 2025):
# What was measured:
# [1] = test system: HCT116 ARID1A+/+ and ARID1A−/− cells; assay: γH2AX western blot; format: cell-based, human; conditions: VX-970 0.5 uM; ARID1A−/− vs ARID1A+/+
# Method: FIG. 5. ATRi effect on cell cycle progression, chromosomal instability, DNA damage and apoptosis. A. Barchart illustrating G2/M fraction in HCT116 ARID1A^+/+ and ARID1A^−/− cells synchronized in G1/early S phase by double thymidine block and released into fresh media containing DMSO or VX-970 (500 nM). The percentage of cells in G2/M was measured by FACS following PI staining. […] Cells were stained with DAPI. A minimum of 50 anaphases were scored in 3 biological replicate experiments. *p=0.023, Student's t-test. C. Bar chart illustrating frequency of anaphase bridges in TOV21G cells exposed to VX-970 (0.5 uM) or DMSO for 8 hours prior to fixation. Experiment performed as for (B). p=0.006 Student's t-test. D. Mitotic spread images from HCT116 ARID1A^+/+ and ARID1A^−/− cells following exposure to either DMSO or VX-970 (1 uM). Scale bar represents 20 um. E. Bar chart illustrating extent of chromosomal abnormalities in HCT116 ARID1A^+/+ and ARID1A^−/− cells exposed to VX-970 (1 uM). *p<0.05, Student's t-test. F. Western blot illustrating γH2AX in HCT116 ARID1A^+/+ and ARID1A^−/− cells exposed to VX-970 (0.5 uM) for the indicated time prior to cell lyses. G. Bar chart illustrating apoptotic fraction in cells exposed to increasing concentrations of VX-970 for 24 hours. Experiment as per FIG. 3I. H. Western blot illustrating PARP cleavage in HCT116 ARID1A^+/+ and ARID1A^−/− cells exposed to VX-970. […]
# [2] = test system: HCC1143 cells; assay: 384 well plate cell survival after ARID1A siRNA transfection; format: cell-based, human; conditions: ARID1A siRNA vs control, five continuous days exposure
# Excerpt: FIG. 1. […] A. Structure of VE-821 and schematic describing workflow for parallel VE-821 chemosensitisation screens in MCF12A and HCC1143 cells. B. Scatter plots of VE-821 Drug Effect (DE) Z-scores from all 1280 siRNAs used in the in the chemosensitisation screens. The DE Z-score threshold of −2 (red line) was used for defining candidate synthetic lethal interactions is shown. C. Venn diagram of DE<−2 VE-821 sensitisation hits in MCF12A and HCC1143 cells. Numbers shown indicate number of sensitisation genes. Amongst the 30 genes with DE Z-scores <−2 in both cell lines, seven well-established tumour suppressor genes were identified. D. Bar charts illustrating DE Z-scores for control, non-targeting, siRNAs (siALLSTAR, siCON1, siCON2) and ARID1A siRNAs in the chemosensitisation screens. Values shown are median from triplicate screens and error bars represent SD. […]
# A siRNA library was purchased from Dharmacon. […] RNAi screening conditions were optimised and raw CellTitre-Glo (Promega) luminescent viability readings were generated as previously described21. […]
# Short-term survival assays were performed in 384-well plates. […] Drug was added 24 h after seeding and cells were continuously exposed to the drug for five days, after which cell viability was estimated using CellTitre-Glo luminescence (Promega). […] Colonies were counted manually. […]
# [3] = test system: TOV21G xenografts; assay: In vivo efficacy, established TOV21G xenografts; parameters: species or system mice; conditions: 60 mg/kg, 4x weekly oral gavage, 28 days; p=0.014 ANOVA
# [4] = test system: synovial sarcoma PDX SA13412; assay: Synovial sarcoma patient-derived xenograft treatment; format: in vivo, mice
structure (smiles),measurement,setting,value
"CNCc1ccc(-c2cc(-c3nc(-c4ccc(S(=O)(=O)C(C)C)cc4)cnc3N)on2)cc1 [VX-970, 5-[4-(Isopropylsulfonyl)phenyl]-3-(3-{4-[(methylamino)methyl]phenyl}-1,2-oxazol-5-yl)-2-pyrazinamine]",γH2AX induction,[1],more pronounced
same,ATRi sensitivity caused by ARID1A siRNA,[2],caused sensitivity
same,growth of established TOV21G tumours vs vehicle,[3],significantly inhibited the growth
same,tumour growth in PDX SA13412,"[4]; established PDX, ANOVA p<0.0001",inhibition of tumour growth
same,survival time of PDX-bearing mice,[4]; log rank Mantel p=0.026,increase in survival time
